Patent US4576943A, “Pyrazolo[1,5-a]pyrimidines” (American Cyanamid Company, priority 1984, dated 1986)

Columns and labels:
[1] = Non-conditioned passive avoidance test in rats (antianxiety); format: in vivo, Wistar strain rats; parameters: key: Active: the number of shocks received by the test group is significantly higher than the control group by the Mann-Witney U test; details: 25 mg/kg, oral or intraperitoneal
Method: The antianxiety effects of the novel compounds of the present invention have been assessd in a non-conditioned passive avoidance procedure described by J. R. Vogel, B. Beer and D. E. Clody, "A Simple and Reliable Conflict Procedure for Testing Antianxiety Agents", Psychopharmacologia, 21, 1-7 (1971). A conflict situation was induced in rats by a modification of this method.
Groups of 6 naive, Wistar strain rats, weighing 200-240 g each, were deprived of water for 48 hours and food for 24 hours. The test compounds were administered in single or graded, oral or intraperitoneal doses, suspended in a 2% starch vehicle containing 0.5% v/v polyethylene glycol and one drop of Polysorbate 80. Control animals received the vehicle alone. At 30 or 60 minutes each rat was placed in an individual plexiglass chamber. Water was available ad libitum from a tap located in the rear of the chamber. A 0.7 milliampere DC shocking current was established between the stainless steel grid floor and the tap. After 20 licks of non-shocked drinking, a shock was delivered for 2 seconds and then further shocks were delivered on a ratio of one shock for 2 seconds for every 20 licks. This was continued for a total of 3 minutes. The number of shocks taken by each rat during the 3 minute interval was recorded and compared to a control group.

[2] = Hypotensive activity in spontaneously hypertensive rats; format: in vivo, spontaneously hypertensive rats of the Okamoto strain; details: 100 mg/kg by gavage, two doses 24 hours apart, measured at 28 hours after the initial dose; one or two rats
Method: The novel compounds of the present invention are active hypotensive agents and were tested for hypotensive activity by the method of P. S. Chan and D. Poorvin, Clinical and Experimental Hypertension, 1 (6), 817-830 (1979). […] One to 3 rats are used per test compound. A rat is dosed by gavage with a test compound suspended in 2% pre-boiled starch at a concentration of 50 mg/ml, at a dose of 100 mg/kg of body weight or less, with 0.9% sodium chloride loading at a dose of 25 ml/kg of body weight. A second identical dose of the test compound, without sodium chloride loading is given 24 hours later. At 28 hours after the initial dose the mean arterial blood pressure is measured by the method of Chan and Poorvin (see above). The procedure is repeated in a second and third rat when necessary. The results of this test on representative compounds of the present invention which were obtained using one or two rats, at a dose of 100 mg/kg of body weight appear below in Table I.

[3] = Passive Avoidance Anoxic Induced Amnesia Test; format: in vivo, Swiss-Webster, middle-aged mice; details: 100 mg/kg i.p., 30 minutes prior to training and testing; over saline control
Text: Another in vivo test associated with decreased neural function in mammals is the Passive Avoidance Anoxic Induced Amnesia Test. This test is used to determine the attenuation of anoxic induced amnesia in mice treated with drug, as compared to saline treated control animals with no drug.
A shock-motivated, single trial, step-through passive avoidance procedure is used. Groups of 25 Swiss-Webster, middle-aged mice (9 months of age) are placed singly in the front chamber of a 2-chamber box and are allowed to voluntarily cross into the rear chamber. As soon as the mouse enters the rear chamber, a guillotine door automatically traps the animal and a mild electric shock (0.4 mA for 4 seconds) is delivered to its feet. Following the foot shock, the mice are initially placed in an anoxic environment (0% oxygen) for 12 seconds, which quickly induces unconsciousness. They are then placed in a hypoxic environment (15% oxygen) for four minutes which prolongs the oxygen deprived state, maintaining unconsciousness. All testing is performed 24 hours later, and in all cases the mice appear fully recovered from the previous anoxic/hypoxic treatment. All test compounds are administered intraperitoneally at a dose of 10-100 mg/kg, 30 minutes prior to training and testing. […]
The latency to enter the rear chamber is recorded for both training and testing. […]

Hypoxic Survival Test = format: in vivo, Royal Hart mice; details: 50 mg/kg i.p., 10% oxygen, 5 minutes
Method: Groups of 20 Royal Hart mice (6 weeks of age) are injected intraperitoneally with 10, 50 or 100 mg/kg of test compound 30 minutes prior to placing them in a hypoxic mixture (10% oxygen in 90% […]) and measuring survival after 5 minutes.
A separate group of 20 mice is injected intraperitoneally with saline solution (0.01 cc/g of body weight) and processed as described above.
Still another group of 20 mice is injected intraperitoneally with 0.125 mg/kg of physostigmine and processed as described above.

N#Cc1c(N2CCOCC2)nn2c(-c3cccc(C(F)(F)F)c3)ccnc12 [2-(4-Morpholinyl)-7-[3-(trifluoromethyl)phenyl]pyrazolo[1,5-a]pyrimidine-3-carbonitrile]
Result (non-conditioned passive avoidance) [1]: Active
Mean Arterial Blood Pressure [2]: 142 mm of mercury

N#Cc1c(N2CCN(Cc3ccccc3)CC2)nn2c(-c3cccc(C(F)(F)F)c3)ccnc12 [2-[4-(Phenylmethyl)-1-piperazinyl]-7-[3-(trifluoromethyl)phenyl]pyrazolo[1,5-a]pyrimidine-3-carbonitrile]
% Improvement [3]: 44%
% Survivors (Hypoxic Survival Test): 52%

N#Cc1c(N2CCN(Cc3cccc(Cl)c3)CC2)nn2c(-c3ccccc3)ccnc12 [2-[4-[(3-Chlorophenyl)methyl]-1-piperazinyl]-7-phenylpyrazolo[1,5-a]pyrimidine-3-carbonitrile]
Result (non-conditioned passive avoidance) [1]: Active

Cc1cc(-c2ccccc2)n2nc(N3CCN(Cc4ccccc4)CC3)c(C#N)c2n1 [5-Methyl-7-phenyl-2-[4-(phenylmethyl)-1-piperazinyl]-pyrazolo[1,5-a]pyrimidine-3-carbonitrile]
Result (non-conditioned passive avoidance) [1]: Active
Mean Arterial Blood Pressure [2]: 131 mm of mercury
